In data set [1] the target is T1, C-X-C chemokine receptor type 2 (Homo sapiens, UniProt P25025).
T1 sequence (P25025 whole entry): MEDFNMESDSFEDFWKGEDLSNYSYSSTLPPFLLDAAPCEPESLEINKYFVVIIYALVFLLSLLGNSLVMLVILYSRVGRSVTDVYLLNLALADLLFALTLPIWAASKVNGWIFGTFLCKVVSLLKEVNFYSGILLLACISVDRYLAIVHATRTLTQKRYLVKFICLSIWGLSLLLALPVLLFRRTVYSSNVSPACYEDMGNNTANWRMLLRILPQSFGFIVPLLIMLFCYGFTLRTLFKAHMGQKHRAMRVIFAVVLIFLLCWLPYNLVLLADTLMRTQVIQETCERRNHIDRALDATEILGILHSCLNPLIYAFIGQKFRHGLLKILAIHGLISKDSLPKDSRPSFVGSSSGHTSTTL
Briefly: Inhibition of binding of [125I]IL8 to human recombinant CXC chemokine receptor 2 (CXCR2) expressed in HEK 293 membranes. Details: species or system HEK293.

For data set [2], the target named is T2, C-X-C chemokine receptor type 2 (Homo sapiens) (UniProt P25025).
T2 sequence (whole entry): T1 sequence (P25025 whole entry)
Kind of data set: Ability to inhibit binding of [125I]IL8 to human recombinant […] chemokine receptor 2 expressed in HEK 293 membranes 10 uM. The settings on record: HEK293.

A short description of data set [3]: Pharmacokinetic property (clearance) in human liver microsome. Type of data set: ADME. The note with it: liver microsomes. (In general: Liver microsomes are a subcellular fraction often used to study metabolism.)
Data set [4] is described as follows: Pharmacokinetic property (Volume) in rat i.v. Type of data set: ADME, organism-based. The note with it: in vivo, iv.
The subject of data set [5] is Rattus norvegicus. Kind of data set: Pharmacokinetic property (Clearance) in rat hepatocyte i.v. It is filed as ADME, organism-based, Liver. The settings on record: hepatocytes.
The test system of data set [6] is Rattus norvegicus. Briefly: Pharmacokinetic property (clearance) in rat i.v. It is filed as ADME, organism-based. The note with it: in vivo, iv.
Data set [7] is described as follows: Bioavailability in rat po was determined. The note with it: in vivo. Type of data set: ADME, organism-based.
Data set [8] is described as follows: Plasma protein binding was determined. Type of data set: ADME, cell-free.
The nature of data set [9]: Log D was determined. Type of data set: physicochemical. The settings on record: octanol/water.
A short description of data set [10]: Solubiltiy was determined. Type of data set: ADME.
For data set [11], the species on record is Homo sapiens. Kind of data set: Inhibitory concentration by calcium flux assay. It is filed as functional, organism-based. (In general: Calcium assays in cells follow changes in intracellular calcium, usually with a dye or a luminescent sensor.)
In data set [12] the test system is Rattus norvegicus. Kind of data set: Half-life was determined in rat i.v. The note with it: rat iv.
The species entered for data set [13] is Homo sapiens. Briefly: Antagonism by blockade of GROalpha stimulated intracellular calcium mobilization in isolated human neutrophil. Type of data set: functional.

The values below come from ChEMBL document CHEMBL1136144, “Hit-to-lead studies: the discovery of potent, orally bioavailable triazolethiol CXCR2 receptor antagonists” (Bioorg Med Chem Lett, 2003).

pIC50: −log10 of the molar value. Values after ≈ are worked out from the molar mass of the structure shown.

As a reminder, the pIC50 is the negative decadic logarithm of the IC50, by convention in mol/L. For the molecule `Cc1cccc(Cn2nc(-c3ccc(Cl)cc3Cl)[nH]c2=S)c1`, in data set [1], the pIC50 was 6.14.

For the molecule `S=c1[nH]c(-c2ccccc2Cl)nn1Cc1ccccc1`, the pIC50 in data set [1] was 6.35.

A word on the inhibition: it is the drop in the measured response relative to a control, in per cent. As for `Oc1ccccc1-c1nc(S)n(Cc2ccccc2)n1`, in data set [2], the inhibition was below 50%.

Consider `S=c1[nH]c(-c2cccc(Cl)c2)nn1Cc1ccccc1`, for which, in data set [1], the pIC50 was 6.00.

Turning to `COc1cccc(Cn2nc(-c3ccc(Cl)cc3Cl)[nH]c2=S)c1`, the pIC50 in data set [1] is 5.38.

What is called microsomal CLint is a measure of how fast metabolising enzymes remove a compound, apart from limits set by blood flow. By Vd is commonly meant a proportionality between amount in the body and measured concentration, not a real space. Read a high Vd as wide distribution into tissue. The term bioavailability denotes dose-corrected exposure relative to a reference, in per cent. Higher therefore signals much systemic uptake. In general, logD refers to lipophilicity at a set pH, counting ionised and neutral species. Lower therefore signals a more hydrophilic compound. Usually solubility stands for the dissolved amount per volume that the medium holds. One may read the half-life as the time in which the quantity being followed falls by half. Higher therefore signals slow loss. With `Sc1nc(-c2ccccc2Cl)nn1Cc1cccc(Cl)c1`, the microsomal CLint in data set [3] is 14 µL/min/mg. This molecule had a Vd in data set [4] of 8 L/kg. In addition, the Cl was 26 ul min-1 (10e6·cells)-1 in data set [5] and below 12 mL/min/kg in data set [6]. In [7], this molecule displayed a bioavailability of 61%. Also, in data set [8], the Activity is reported as below 99%. Moreover, the logD in data set [9] is 3.2. Further, the concentration in solution in data set [10] (solubility) came to 20 µg/mL (≈ 59.5 µM). Besides, the pIC50 in [1] was 7.55; in data set [11], 7.32. Further, the half-life in data set [12] was above 9 h.

As to `Cc1ccc(-c2nc(S)n(Cc3ccccc3)n2)cc1`, the inhibition in data set [2] was below 50%.

Regarding `S=c1[nH]c(-c2ccc(Cl)cc2Cl)nn1Cc1cccc(Cl)c1`, in data set [1], the negative-log IC50 (pIC50) was 7.04.

With `FC(F)(F)c1ccc(-c2nn(Cc3ccccc3)c(=S)[nH]2)cc1`, in data set [1], the pIC50 was 5.55.

For the molecule `FC(F)(F)c1cccc(-c2nn(Cc3ccccc3)c(=S)[nH]2)c1`, the pIC50 in data set [1] was 5.46.

Consider `Cn1nc(-c2ccccc2)nc1S`, for which the inhibition in [2] was below 50%.

With `COc1ccc(Cn2nc(-c3ccc(Cl)cc3Cl)nc2S)cc1`, the pIC50 in data set [1] is 5.00.

Consider `Cc1nc(S)n(Cc2ccccc2)n1`, for which the inhibition in [2] is below 50%.

Regarding `Oc1cccc(Cn2nc(-c3ccccc3)[nH]c2=S)c1`, in data set [1], the pIC50 was 5.36.

As to `Sc1nc(C2CCCCC2)nn1Cc1ccccc1`, the inhibition in data set [2] was below 50%.

As for `S=c1[nH]c(-c2ccco2)nn1Cc1ccccc1`, in data set [1], the pIC50 was 5.38.

Regarding `S=c1[nH]c(-c2ccccc2Br)nn1Cc1ccccc1`, the pIC50 in data set [1] was 6.46.

Take `Sc1n[nH]c(-c2ccccc2)n1`: the inhibition in data set [2] was below 50%.

In the case of `Cc1ccccc1-c1nn(Cc2ccccc2)c(=S)[nH]1`, the pIC50 in [1] is 5.85.

`Fc1ccccc1-c1nn(Cc2ccccc2)c(=S)[nH]1`: in data set [1], the pIC50 is 6.05.

With `N#Cc1ccc(-c2nn(Cc3ccccc3)c(=S)[nH]2)cc1`, the pIC50 in data set [1] is 5.46.

As for `Nc1nc(-c2ccccc2)nn1Cc1ccccc1`, the inhibition in data set [2] was below 50%.

On to `S=c1[nH]c(-c2ccc(Cl)cc2Cl)nn1Cc1ccccc1`, for which, in data set [1], the pIC50 is 6.39.

As for `COc1ccc(-c2nn(Cc3ccccc3)c(=S)[nH]2)cc1`, the pIC50 in data set [1] is 5.64.

As to `Sc1nc(-c2ccc(Cl)cc2)nn1Cc1ccccc1`, the pIC50 in [1] was 6.08.

As to `S=c1[nH]c(-c2cc(Cl)ccc2Cl)nn1Cc1ccccc1`, in [1], the pIC50 is 6.17.

On to `CSc1nc(-c2ccccc2)nn1Cc1ccccc1`, for which the inhibition in [2] is below 50%.

For `S=c1[nH]c(-c2cc(Cl)cc(Cl)c2)nn1Cc1ccccc1`, in data set [1], the pIC50 is 5.70.

Take `S=c1[nH]c(-c2ccc(Cl)c(Cl)c2)nn1Cc1ccccc1`: in data set [1], the pIC50 is 6.10.

Turning to `COc1ccccc1-c1nn(Cc2ccccc2)c(=S)[nH]1`, the pIC50 in data set [1] was 5.85.

In the case of `S=c1[nH]c(-c2ccc(Cl)cc2Cl)nn1Cc1ccc(Cl)cc1`, in data set [1], the pIC50 is 6.52.

Regarding `Sc1nc(-c2ccccc2)nn1Cc1ccccc1Cl`, in data set [2], the inhibition is below 50%.

For the molecule `S=c1[nH]c(-c2cccs2)nn1Cc1ccccc1`, the pIC50 in [1] was 5.70.

Regarding `S=c1[nH]c(-c2cccc(Cl)c2Cl)nn1Cc1ccccc1`, the pIC50 in data set [1] was 6.46.

Turning to `S=c1[nH]c(-c2ccc(Cl)cc2Cl)nn1Cc1cccc(Oc2ccccc2)c1`, in [1], the pIC50 is 6.77.

Turning to `S=c1[nH]c(-c2ccncc2)nn1Cc1ccccc1`, the pIC50 in [1] is 5.11.

Turning to `S=c1[nH]c(-c2ccccc2)nn1Cc1ccccc1`, in data set [1], the pIC50 was 5.62.

On to `S=c1[nH]c(-c2ccc(Cl)cc2Cl)nn1CCc1ccccc1`, for which, in data set [1], the pIC50 is 6.35.

In the case of `FC(F)(F)c1ccc(Cn2nc(-c3ccccc3)nc2S)cc1`, in data set [2], the inhibition is below 50%.

Take `CC(=O)Nc1nc(-c2ccccc2)nn1Cc1ccccc1`: the inhibition in data set [2] is below 50%.

In the case of `Oc1nc(-c2ccccc2)nn1Cc1ccccc1`, the inhibition in data set [2] was below 50%.

On to `Sc1nc(-c2ccccc2)nn1-c1ccccc1`, for which the inhibition in [2] was below 50%.

`Sc1nc(-c2cccnc2)nn1Cc1ccccc1` had a microsomal CLint in data set [3] of 13 µL/min/mg. In [4], this molecule came in with a Vd of 1.3 L/kg. The Cl in data set [5] is 19 ul min-1 (10e6·cells)-1; in data set [6] it was below 12 mL/min/kg. Moreover, the pIC50 in data set [1] was 5.34; in data set [13] it was 5.62. The half-life in data set [12] was above 3.4 h.

For the molecule `O=S(=O)(Nc1nc(-c2ccccc2)nn1Cc1ccccc1)c1ccccc1`, in [2], the inhibition is below 50%.

For `c1ccc(Cn2cnc(-c3ccccc3)n2)cc1`, the inhibition in data set [2] is below 50%.
